In patent publication US20210395239A1 (Hoffmann-La Roche Inc., priority 2018, published 2021):

These molecules were tested against T1, hTLR9 (Homo sapiens, UniProt Q9NR96) (assay: HEK293-Blue-hTLR-9 cells assay (SEAP reporter, ODN2006 stimulation)). Details: HEK293-Blue-hTLR9 cells, ODN2006, 20 hrs; read-out: HEK/hTLR9 IC50.
T1 sequence (Q9NR96 26-1032): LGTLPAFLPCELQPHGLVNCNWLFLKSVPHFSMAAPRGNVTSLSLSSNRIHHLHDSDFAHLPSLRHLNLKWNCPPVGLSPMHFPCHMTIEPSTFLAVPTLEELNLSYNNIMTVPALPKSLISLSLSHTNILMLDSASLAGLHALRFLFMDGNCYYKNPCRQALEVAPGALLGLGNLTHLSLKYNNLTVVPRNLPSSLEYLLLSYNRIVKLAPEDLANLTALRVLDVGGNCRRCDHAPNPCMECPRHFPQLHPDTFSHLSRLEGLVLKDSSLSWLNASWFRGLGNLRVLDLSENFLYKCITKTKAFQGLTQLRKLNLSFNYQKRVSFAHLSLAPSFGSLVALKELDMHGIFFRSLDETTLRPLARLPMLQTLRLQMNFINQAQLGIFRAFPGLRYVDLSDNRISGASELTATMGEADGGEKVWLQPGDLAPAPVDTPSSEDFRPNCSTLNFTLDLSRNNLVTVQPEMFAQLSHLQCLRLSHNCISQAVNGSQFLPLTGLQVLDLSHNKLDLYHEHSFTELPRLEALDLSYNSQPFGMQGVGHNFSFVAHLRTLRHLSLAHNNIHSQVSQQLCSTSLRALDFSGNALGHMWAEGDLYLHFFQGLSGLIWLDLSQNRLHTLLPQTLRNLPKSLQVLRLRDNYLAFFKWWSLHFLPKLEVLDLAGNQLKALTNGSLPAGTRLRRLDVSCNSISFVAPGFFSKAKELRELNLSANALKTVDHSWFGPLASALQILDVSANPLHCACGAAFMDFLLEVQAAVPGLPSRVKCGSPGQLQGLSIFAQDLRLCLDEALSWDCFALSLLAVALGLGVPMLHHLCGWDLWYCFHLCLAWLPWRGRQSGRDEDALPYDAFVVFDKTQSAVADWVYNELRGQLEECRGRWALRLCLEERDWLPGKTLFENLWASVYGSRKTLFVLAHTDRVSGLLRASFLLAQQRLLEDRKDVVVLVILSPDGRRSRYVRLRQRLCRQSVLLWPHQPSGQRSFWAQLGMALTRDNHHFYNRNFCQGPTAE
Format: cell-based
Parameters: host or cells: HEK293 (HEK-Blue hTLR9)
Outline: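 HEK293-Blue-hTLR9 cells with NF-κB/AP-1-driven SEAP reporter treated with serially diluted compound (1% DMSO final) plus ODN2006 for 20 h at 37 °C. Supernatant SEAP measured with QUANTI-Blue, 2 h at 37 °C, absorbance 620–655 nm; antagonism seen as reduced reporter signal.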
An IC50 of 0.07 µM was found for C[C@@H]1CN(c2ccc(C#N)n3ncc(F)c23)C[C@H](CN2CCN(c3ccc(N4CC5(CN(C)C5)C4)nc3)CC2)O1 [Example 170, 3-fluoro-4-[(2R,6S)-2-methyl-6-[[4-[6-(6-methyl-2,6-diazaspiro[3.3]heptan-2-yl)-3-pyridyl]piperazin-1-yl]methyl]morpholin-4-yl]pyrazolo[1,5-a]pyridine-7-carbonitrile] in this work.
An IC50 of 0.035 µM was found for C[C@@H]1CN(c2cc(=O)n(C)c3ncccc23)C[C@H](CN2CC(c3ccc(N4CCNCC4)cc3)C2)O1 [Example 171, 1-methyl-4-[(2R,6S)-2-methyl-6-[[3-(4-piperazin-1-ylphenyl)azetidin-1-yl]methyl]morpholin-4-yl]-1,8-naphthyridin-2-one] in this work.
An IC50 of 0.06 µM was found for C[C@@H]1CN(c2cc(=O)n(C)c3ncccc23)C[C@H](CN2CC(c3ccc(N4CC5(CNCCO5)C4)cc3)C2)O1 [Example 173, 1-methyl-4-[(2R,6S)-2-methyl-6-[[3-[4-(5-oxa-2,8-diazaspiro[3.5]nonan-2-yl)phenyl]azetidin-1-yl]methyl]morpholin-4-yl]-1,8-naphthyridin-2-one] in this work.
An IC50 of 0.066 µM was found for C[C@@H]1CN(c2ccc(C#N)n3ncc(F)c23)C[C@H](CN2CCN(c3ccc(N4CC[C@@H](N)[C@H](F)C4)nc3)CC2)O1 [Example 175, 4-[(2S,6R)-2-[[4-[6-[(3R,4R)-4-amino-3-fluoro-1-piperidyl]-3-pyridyl]piperazin-1-yl]methyl]-6-methyl-morpholin-4-yl]-3-fluoro-pyrazolo[1,5-a]pyridine-7-carbonitrile] in this work.
An IC50 of 0.101 µM was found for C[C@@H]1CN(c2cc(=O)n(C)c3ncccc23)C[C@H](CN2CC(c3ccc(N4CC(C)(N)C4)cc3)C2)O1 [Example 176, 4-[(2S,6R)-2-[[3-[4-(3-amino-3-methyl-azetidin-1-yl)phenyl]azetidin-1-yl]methyl]-6-methyl-morpholin-4-yl]-1-methyl-1,8-naphthyridin-2-one] in this work.
An IC50 of 0.098 µM was found for C[C@@H]1CN(c2ccc(C#N)n3ncc(F)c23)C[C@H](CN2CCN(c3ccc([C@@H]4CNCCO4)cc3)CC2)O1 [Example 177, 3-fluoro-4-[(2R,6S)-2-methyl-6-[[4-[4-[(2R)-morpholin-2-yl]phenyl]piperazin-1-yl]methyl]morpholin-4-yl]pyrazolo[1,5-a]pyridine-7-carbonitrile] in this work.
An IC50 of 0.116 µM was found for C[C@@H]1CN(c2ccc(C#N)n3ncc(F)c23)C[C@H](CN2CCN(c3ccc(N4CCOC5(CNC5)C4)nc3)CC2)O1 [Example 178, 3-fluoro-4-[(2R,6S)-2-methyl-6-[[4-[6-(5-oxa-2,8-diazaspiro[3.5]nonan-8-yl)-3-pyridyl]piperazin-1-yl]methyl]morpholin-4-yl]pyrazolo[1,5-a]pyridine-7-carbonitrile] in this work.
An IC50 of 0.157 µM was found for C[C@@H]1CN(c2ccc(C#N)n3ncc(F)c23)C[C@H](CN2CCN(c3ccc(N4CC5(CCN5)C4)nc3)CC2)O1 [Example 179, 4-[(2S,6R)-2-[[4-[6-(1,6-diazaspiro[3.3]heptan-6-yl)-3-pyridyl]piperazin-1-yl]methyl]-6-methyl-morpholin-4-yl]-3-fluoro-pyrazolo[1,5-a]pyridine-7-carbonitrile] in this work.
An IC50 of 0.041 µM was found for C[C@@H]1CN(c2cc(=O)n(C)c3ncccc23)C[C@H](CN2CC(c3ccc(N4CC5(CN(C)C5)C4)cc3)C2)O1 [Example 180, 1-methyl-4-[(2R,6S)-2-methyl-6-[[3-[4-(6-methyl-2,6-diazaspiro[3.3]heptan-2-yl)phenyl]azetidin-1-yl]methyl]morpholin-4-yl]-1,8-naphthyridin-2-one] in this work.
An IC50 of 0.039 µM was found for C[C@@H]1CN(c2cc(=O)n(C)c3ncccc23)C[C@H](CN2CC(c3ccc(N4C[C@H]5NCCO[C@@H]5C4)cc3)C2)O1 [Example 182, 4-[(2S,6R)-2-[[3-[4-[(4aR,7aR)-3,4,4a,5,7,7a-hexahydro-2H-pyrrolo[3,4-b][1,4]oxazin-6-yl]phenyl]azetidin-1-yl]methyl]-6-methyl-morpholin-4-yl]-1-methyl-1,8-naphthyridin-2-one] in this work.
An IC50 of 0.124 µM was found for C[C@@H]1CN(c2ccc(C#N)n3ncc(F)c23)C[C@H](CN2CCN(c3ccc([C@@H]4CNCCO4)c(F)c3)CC2)O1 [Example 184, 3-fluoro-4-[(2S,6R)-2-[[4-[3-fluoro-4-[(2R)-morpholin-2-yl]phenyl]piperazin-1-yl]methyl]-6-methyl-morpholin-4-yl]pyrazolo[1,5-a]pyridine-7-carbonitrile] in this work.
An IC50 of 0.186 µM was found for C[C@@H]1CN(c2ccc(C#N)n3ncc(F)c23)C[C@H](CN2CCN(c3ccc(C4(C)CNCCO4)cc3)CC2)O1 (stereo partly drawn) [Example 185, 3-fluoro-4-[(2R,6S)-2-methyl-6-[[4-[4-(2-methylmorpholin-2-yl)phenyl]piperazin-1-yl]methyl]morpholin-4-yl]pyrazolo[1,5-a]pyridine-7-carbonitrile] in this work.
An IC50 of 0.124 µM was found for C[C@@H]1CN(c2ccc(C#N)n3ncc(F)c23)C[C@H](CN2CCN(c3ccc(C[C@@H]4CNCCO4)cc3)CC2)O1 [Example 186, 3-fluoro-4-[(2R,6S)-2-methyl-6-[[4-[4-[[(2R)-morpholin-2-yl]methyl]phenyl]piperazin-1-yl]methyl]morpholin-4-yl]pyrazolo[1,5-a]pyridine-7-carbonitrile] in this work.
